Experimental data taken from US5597823A, “Tricyclic substituted hexahydrobenz [e]isoindole alpha-1 adrenergic antagonists” (priority 1995, dated 1997).
Structures can show the parent of a compound that is named as a salt.

How the values were obtained:
[1] = cited from earlier work; for urinary flow rates and subjective symptom scores: longer term studies
[2] = biological target: T1, α-1B adrenoceptor (rat spleen) (Rattus norvegicus, UniProt P15823); test: Functional antagonism: phenylephrine (PE)-induced contraction of rat spleen; type: cell-based; settings: for more potent effect on spleen smooth muscle: PE-induced contraction, pA2 models compared; for Kb: read-out: pA2 Rat Spleen [α-1B] (converted)
T1 construct: PE-induced contraction of rat spleen; from tissue; host or cells: rat spleen
T1 sequence (P15823 1-515): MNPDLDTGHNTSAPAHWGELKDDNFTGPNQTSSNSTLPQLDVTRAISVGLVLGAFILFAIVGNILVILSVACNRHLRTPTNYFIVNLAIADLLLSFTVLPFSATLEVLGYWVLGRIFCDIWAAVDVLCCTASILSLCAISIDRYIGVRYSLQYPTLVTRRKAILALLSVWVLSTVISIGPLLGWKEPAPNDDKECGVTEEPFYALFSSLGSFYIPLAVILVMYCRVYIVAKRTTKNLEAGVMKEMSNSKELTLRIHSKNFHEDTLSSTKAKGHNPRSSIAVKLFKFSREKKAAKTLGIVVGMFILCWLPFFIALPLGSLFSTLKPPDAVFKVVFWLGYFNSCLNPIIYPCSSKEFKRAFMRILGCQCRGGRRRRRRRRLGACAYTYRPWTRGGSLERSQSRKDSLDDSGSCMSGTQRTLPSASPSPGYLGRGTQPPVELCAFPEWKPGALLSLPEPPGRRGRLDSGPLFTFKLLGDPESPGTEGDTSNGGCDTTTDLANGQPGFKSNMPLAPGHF
From the text: (§1) Functional assays indicative of pharmacologically defined α-1 adrenoceptors were used to further characterize compounds. Inhibition of phenylephrine (PE)-induced contraction of canine prostate smooth muscle can be correlated with α-1A adrenoceptor activation. […] For each of these models, agonist dose response curves were repeated against increasing concentrations of test agent to derive a Schild plot [log ([…]) against log (molarity of test agent)] to determine the pA2.

[3] = biological target: T2, α-1A adrenoceptor (rat vas deferens) (Rattus norvegicus, UniProt P43140); test: Functional antagonism: phenylephrine (PE)-induced contraction of rat vas deferens; type: cell-based; settings: vs phenylephrine, Schild plot; for Kb: read-out: pA2 Rat Vas Deferens [α-1A] (converted)
T2 construct: PE-induced contraction of rat vas deferens; from tissue; host or cells: rat vas deferens
T2 sequence (P43140 1-466): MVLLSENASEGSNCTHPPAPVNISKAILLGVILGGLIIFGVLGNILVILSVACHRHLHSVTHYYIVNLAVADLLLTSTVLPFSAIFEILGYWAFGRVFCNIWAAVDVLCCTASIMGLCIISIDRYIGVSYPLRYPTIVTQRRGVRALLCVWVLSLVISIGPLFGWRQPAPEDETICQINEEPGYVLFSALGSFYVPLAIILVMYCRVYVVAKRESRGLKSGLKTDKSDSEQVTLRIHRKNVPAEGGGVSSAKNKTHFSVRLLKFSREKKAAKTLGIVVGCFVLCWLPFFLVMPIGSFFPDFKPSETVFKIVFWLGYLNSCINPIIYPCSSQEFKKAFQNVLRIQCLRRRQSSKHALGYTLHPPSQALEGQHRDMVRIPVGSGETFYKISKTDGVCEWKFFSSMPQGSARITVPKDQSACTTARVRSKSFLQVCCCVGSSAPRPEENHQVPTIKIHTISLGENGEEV
From the text: as §1

[4] = biological target: T3, α-1A adrenoceptor (dog prostate) (Canis lupus, UniProt A0A8I3NK63); test: Functional antagonism: phenylephrine (PE)-induced contraction of canine prostate strips; type: cell-based; settings: Table 2a; vs phenylephrine; Schild plot
T3 sequence (A0A8I3NK63 1-466): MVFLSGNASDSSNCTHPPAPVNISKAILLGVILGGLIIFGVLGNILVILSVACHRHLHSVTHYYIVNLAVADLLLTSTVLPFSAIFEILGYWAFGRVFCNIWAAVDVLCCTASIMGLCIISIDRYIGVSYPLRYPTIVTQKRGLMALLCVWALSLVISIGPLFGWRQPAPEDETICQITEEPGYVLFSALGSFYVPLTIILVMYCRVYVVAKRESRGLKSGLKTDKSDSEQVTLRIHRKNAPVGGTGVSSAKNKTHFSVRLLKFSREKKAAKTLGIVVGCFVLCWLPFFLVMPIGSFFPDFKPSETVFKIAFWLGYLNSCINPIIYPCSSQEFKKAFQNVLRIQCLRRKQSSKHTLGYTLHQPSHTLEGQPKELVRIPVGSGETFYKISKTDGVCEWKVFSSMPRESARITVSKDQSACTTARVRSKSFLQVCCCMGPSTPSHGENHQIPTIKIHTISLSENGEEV
Summary of the method: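 Canine prostate smooth-muscle strips in vitro, contracted by phenylephrine. Agonist dose–response curves repeated at rising test-agent concentrations; pA2 derived by Schild plot […].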

[5] = women during antihypertensive treatment; cited from earlier work

| SMILES | urinary flow rates and subjective symptom scores [1] | Kb [3] | pA2 Dog Prostate [α-1A] [4] | Kb ([2]; vs phenylephrine, Schild plot) | other results |
| --- | --- | --- | --- | --- | --- |
| COc1cc2nc(N3CCN(C(=O)C4CCCO4)CC3)nc(N)c2cc1OC (stereo not shown) [terazosin] | significant improvements in urinary flow rates and subjective symptom scores |  |  |  | clinical efficacy in BPH ([1]; human, in vivo): Clinical efficacy of α-1 antagonists in BPH has been demonstrated; more potent effect on spleen smooth muscle [2]: more potent effect on spleen smooth muscle by approximately an order of magnitude |
| O=C(NC1CCN(CCc2c[nH]c3ccccc23)CC1)c1ccccc1 [indoramin] | significant improvements in urinary flow rates and subjective symptom scores |  |  |  |  |
| COc1cccc2c1CC[C@H]1CN(CCn3c(=O)[nH]c4c([nH]c5ccccc54)c3=O)C[C@@H]21 [Example 26, 3-[2-((3aR,9bR)-cis-6-Methoxy-2,3,3a,4,5,9b-hexahydro-[1 H]-benz[e]isoindol-1-yl)ethyl]-1H-pyrimido[5.4-b]indole-2,4(1H,3H)-dione hydrochloride] |  | 2.75 nM | 8.63 | 7.41 nM |  |
| COc1cccc2c1[C@@H]1CN(CCn3c(=O)[nH]c4c(sc5ccccc54)c3=O)C[C@@H]1CC2 [Example 16, hydrochloride] |  | 10.5 nM | 8.54 | 56.2 nM |  |
| COc1cccc2c1CC[C@H]1CN(CCn3c(=O)[nH]c4c(sc5nc(Cl)cnc54)c3=O)C[C@@H]21 [Example 88, 3-[2-(cis-(3aR,9bR)-6-Methoxy-2,3,3a,4,5,9b-hexahydro-[1H]-benz[e]isoindol-1-yl)ethyl]-7-chloro-pyrazino[2',3':4,5]thieno[3,2-d]pyrimidine-2,4(1H,3H)-dione hydrochloride] |  | 1.1 nM | 9.35 | 44.7 nM |  |
| COc1cccc2c1CC[C@H]1CN(CCn3c(=O)[nH]c4c(sc5cccc(C)c54)c3=O)C[C@@H]21 [Example 69, 3-[2-((3aR,9bR)-cis-6-Methoxy-2,3,3a,4,5,9b-hexahydro-[1H]-benz[e]isoindol-1-yl)ethyl]-[1]-9-methyl-benzothieno[3,2-d]pyrimidine-2,4(1H,3H)-dione hydrochloride] |  | 2.51 nM | 8.25 | 69.2 nM |  |
| O=c1[nH]c2c(sc3cccnc32)c(=O)n1CCN1C[C@@H]2CCc3c(ccc4c3OCO4)[C@@H]2C1 (relative stereo) [Example 112, dihydrochloride] |  |  | 8.18 |  | pA2 Rat Vas Deferens [α-1A] [3]: 7.92; pA2 Rat Spleen [α-1B] ([2]; vs phenylephrine, Schild plot): 7.2 |
| COc1cc2nc(N3CCN(C(=O)c4ccco4)CC3)nc(N)c2cc1OC [prazosin] | significant improvements in urinary flow rates and subjective symptom scores |  |  |  | urinary incontinence [5]: urinary incontinence developed in women; more potent effect on spleen smooth muscle [2]: more potent effect on spleen smooth muscle by approximately an order of magnitude |
| COc1cccc2c1CC[C@@H]1CN(CCn3c(=O)[nH]c4c([nH]c5ccccc54)c3=O)C[C@@H]21 (relative stereo) [Example 17, 3-[2-(trans-6-Methoxy-2,3,3a,4,5,9b-hexahydro-[[1H]-benz[e]isoindol-1-yl)ethyl]-1H-pyrimido[5,4-b]indole-2,4(3H,5H)-dione hydrochloride] |  | 10.7 nM | 8.29 | 63.1 nM |  |
